Reference: US12139474B2, “LPA receptor antagonists and uses thereof” (Gilead Sciences, Inc., priority 2020, dated 2024)

What follows are molecules tested against T1, human LPAR1 (Homo sapiens, UniProt Q92633) (assay: LPAR1 intracellular calcium mobilization assay (antagonist mode)). Details: CHO-K1 EDG2 cells expressing human LPAR1; 60 min pre-incubation with compound, then LPA 18:2 at EC80 (100 nM); FLIPR calcium signal.
T1 construct: host or cells: CHO-K1
Assay type: cell-based
Description: In vitro LPAR1 activity was measured in an intracellular calcium mobilization assay.
CHO-K1 EDG2 cells (DiscoverX cat #93-0644C2) expressing human LPAR1 (NM_001401.3) were seeded in a total volume of 25 μL of Dulbecco's Modification of Eagle's Medium (DMEM) with 10% Fetal Bovine Serum, 1× PenStrepGlutamine, 300 ug/ml Hygromycin, and 800 ug/ml G418 into 384-well tissue culture plate (Grenier #781091) at 15,000 cells/well and incubated at 37° C. overnight. Prior to testing, 25 μL Calcium Loading Dye Component A (FLIPR Calcium 6 Assay Kit Molecular Device #R8190) and 2.5 mM Probenecid (Invitrogen #P36400, prepared fresh) in Hank's Balanced Salt Solution (Corning #21-023-CV), 20 mM HEPES (Corning #25-060-CI), 0.1% Bovine Serum Albumin (Sigma-Aldrich #A7906-500G) was add to the cells for 60 minutes at 37° C.
Agonist dose curves of LPA 18:2 (Avanti Polar Lipids cat #857138, 0.5 nM to 10 μM) were recorded to determine the LPA 18:2 EC80 for subsequent antagonist assays. For agonist dose curves, cells were removed from the incubator 2 hours after dye loading and transferred to the FLIPR Tetra instrument (Molecular Devices, San Jose, CA). Calcium mobilization was monitored for 5 min and 10 μL 6× LPA in HBSS/20 mM Hepes/0.1% bovine serum albumin (BSA) was added to the cells 5 seconds into the assay.
To determine the LPAR1 antagonist activity of test compounds, cells were pre-incubated with test compound at a dose range of 0.5 nM to 10 μM, followed by LPA at EC80 concentration (100 nM). After dye loading, cells were removed from the incubator and 0.3 μL of 200× antagonist was added. Cells were incubated for 60 minutes at 37° C. Antagonist activity was measured on a FLIPR Tetra. Calcium mobilization was monitored for 3.5 minutes and 10 μL 6× EC80 LPA in HBSS, 20 mM HEPES, and 0.1% BSA was added to the cells 5 seconds into the assay. Signal amplitude (Maximum minus minimum) values were plotted against log10 of antagonist concentration using Dose Response Tool (Gilead Sciences Inc.) to determine EC50.
To assess the antagonistic potential of exemplified compounds EC50 values were determined for Compounds 1 to 32 in the LPAR1 calcium mobilization assay. The compound numbers correspond to the compound numbers in Examples 1 to 33.

T1 sequence (Q92633 whole entry): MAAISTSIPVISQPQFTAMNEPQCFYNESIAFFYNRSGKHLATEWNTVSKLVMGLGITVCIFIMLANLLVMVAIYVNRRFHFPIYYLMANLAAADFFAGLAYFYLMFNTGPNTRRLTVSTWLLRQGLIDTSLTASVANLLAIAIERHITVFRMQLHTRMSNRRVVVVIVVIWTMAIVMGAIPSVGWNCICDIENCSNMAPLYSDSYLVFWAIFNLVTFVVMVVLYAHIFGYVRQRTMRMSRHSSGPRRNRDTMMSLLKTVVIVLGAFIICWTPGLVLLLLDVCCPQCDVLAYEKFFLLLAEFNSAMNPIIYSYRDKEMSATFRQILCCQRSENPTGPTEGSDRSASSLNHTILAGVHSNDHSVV

Row | Structure (SMILES) | EC50
1 | CC(OC(=O)Nc1c(-c2ccc3c(n2)OCC(=O)N3)nnn1C)c1cc(F)ncc1F (stereo not shown) [Compound 2, 1-(2,5-difluoropyridin-4-yl)ethyl(1-methyl-4-(2-oxo-2,3-dihydro-1H-pyrido[2,3-b][1,4]-oxazin-6-yl)-1H-1,2,3-triazol-5-yl)carbamate] | 1980 nM
2 | C[C@@H](OC(=O)Nc1c(-c2nc3c(cc2F)NC(=O)CO3)nnn1C)c1cccnc1Cl [Compound 28, (R)-1-(2-chloropyridin-3-yl)ethyl (4-(7-fluoro-2-oxo-2,3-dihydro-1H-pyrido[2,3-b][1,4]oxazin-6-yl)-1-methyl-1H-1,2,3-triazol-5-yl)carbamate] | 660 nM
3 | C[C@@H](OC(=O)Nc1c(-c2ccc3c(c2)CC(=O)N3)nnn1C)c1ccccc1Cl [Compound 14, (R)-1-(2-chlorophenyl)ethyl(1-methyl-4-(2-oxoindolin-5-yl)-1H-1,2,3-triazol-5-yl)carbamate] | 4160 nM
4 | C[C@@H](OC(=O)Nc1c(-c2ccc3c(c2)N(C)CC(=O)N3)nnn1C)c1ccccc1Cl [Compound 19, (R)-1-(2-chlorophenyl)ethyl (1-methyl-4-(4-methyl-2-oxo-1,2,3,4-tetrahydroquinoxalin-6-yl)-1H-1,2,3-triazol-5-yl)carbamate] | 265 nM
5 | CCC1Oc2nc(-c3nnn(C)c3NC(=O)O[C@H](C)c3cccnc3Cl)ccc2NC1=O (stereo partly drawn) [Compound 26, (R)-1-(2-chloropyridin-3-yl)ethyl (4-(3-ethyl-2-oxo-2,3-dihydro-1H-pyrido[2,3-b][1,4]oxazin-6-yl)-1-methyl-1H-1,2,3-triazol-5-yl)carbamate] | 3780 nM
6 | C[C@@H](OC(=O)Nc1c(-c2ccc3c(c2)OCC(=O)N3)nnn1C)c1cccnc1Cl [Compound 18, (R)-1-(2-chloropyridin-3-yl)ethyl (1-methyl-4-(3-oxo-3,4-dihydro-2H-benzo[b][1,4]-oxazin-7-yl)-1H-1,2,3-triazol-5-yl)-carbamate] | 265 nM
7 | C[C@@H](OC(=O)Nc1c(-c2ccc3c(c2F)CCC(=O)N3)nnn1C)c1cccnc1Cl [Compound 7, (R)-1-(2-chloropyridin-3-yl)ethyl (4-(5-fluoro-2-oxo-1,2,3,4-tetrahydroquinolin-6-yl)-1-methyl-1H-1,2,3-triazol-5-yl)carbamate] | 1230 nM
8 | C[C@@H](OC(=O)Nc1c(-c2ccc3c(n2)COC(=O)N3)nnn1C)c1cccnc1Cl [Compound 25, [(1R)-1-(2-chloro-3-pyridyl)ethyl] N-[3-methyl-5-(2-oxo-1,4-dihydropyrido[3,2-d][1,3]oxazin-6-yl)triazol-4-yl]carbamate] | 140 nM
9 | C[C@@H](OC(=O)Nc1c(-c2ccc3c(c2)COC(=O)N3)nnn1C)c1ccccc1Cl [Compound 12, (R)-1-(2-chlorophenyl)ethyl(1-methyl-4-(2-oxo-1,4-dihydro-2H-benzo[d][1,3]-oxazin-6-yl)-1H-1,2,3-triazol-5-yl)-carbamate] | 218 nM
10 | CC1Oc2nc(-c3nnn(C)c3NC(=O)O[C@H](C)c3cc(F)cnc3F)ccc2NC1=O (stereo partly drawn) [Compound 32, (R)-1-(2,5-difluoropyridin-3-yl)ethyl (1-methyl-4-(3-methyl-2-oxo-2,3-dihydro-1H-pyrido[2,3-b][1,4]oxazin-6-yl)-1H-1,2,3-triazol-5-yl)carbamate] | 3780 nM
11 | C[C@@H](OC(=O)Nc1c(-c2ccc3c(n2)OCC(=O)N3)nnn1C)c1cc(Cl)cnc1F [Compound 4, (R)-1-(5-chloro-2-fluoropyridin-3-yl)-ethyl(1-methyl-4-(2-oxo-2,3-dihydro-1H-pyrido[2,3-b][1,4]-oxazin-6-yl)-1H-1,2,3-triazol-5-yl)-carbamate] | 118 nM
12 | C[C@@H](OC(=O)Nc1c(-c2ccc3c(n2)OC(C)(C)C(=O)N3)nnn1C)c1cccnc1Cl [Compound 21, (R)-1-(2-chloropyridin-3-yl)ethyl (4-(3,3-dimethyl-2-oxo-2,3-dihydro-1H-pyrido[2,3-b][1,4]oxazin-6-yl)-1-methyl-1H-1,2,3-triazol-5-yl)carbamate] | 2280 nM
13 | C[C@@H](OC(=O)Nc1c(-c2ccc3c(c2)COC(=O)N3)nnn1C)c1cccnc1Cl [Compound 16, (R)-1-(2-chloropyridin-3-yl)ethyl (1-methyl-4-(2-oxo-1,4-dihydro-2H-benzo[d][1,3]-oxazin-6-yl)-1H-1,2,3-triazol-5-yl)-carbamate] | 525 nM
14 | C[C@@H](OC(=O)Nc1c(-c2cc3c(cc2F)NC(=O)CC3)nnn1C)c1cccnc1Cl [Compound 6, [(1R)-1-(2-chloro-3-pyridyl)ethyl] N-[5-(7-fluoro-2-oxo-3,4-dihydro-1H-quinolin-6-yl)-3-methyl-triazol-4-yl]carbamate] | 115 nM
15 | C[C@@H](OC(=O)Nc1c(-c2ccc3c(c2)C(C)(C)OC(=O)N3)nnn1C)c1cccnc1F [Compound 9, (R)-1-(2-fluoropyridin-3-yl)ethyl (4-(4,4-dimethyl-2-oxo-1,4-dihydro-2H-benzo[d][1,3]oxazin-6-yl)-1-methyl-1H-1,2,3-triazol-5-yl)carbamate] | 4610 nM
16 | C[C@@H](OC(=O)Nc1c(-c2ccc3c(n2)OC(c2ccccc2)C(=O)N3)nnn1C)c1cccnc1Cl (stereo partly drawn) [Compound 27, (R)-1-(2-chloropyridin-3-yl)ethyl (1-methyl-4-(2-oxo-3-phenyl-2,3-dihydro-1H-pyrido[2,3-b][1,4]oxazin-6-yl)-1H-1,2,3-triazol-5-yl)carbamate] | 135 nM
17 | Cn1nnc(-c2ccc3c(n2)OCC(=O)N3)c1NC(=O)O[C@H](CF)c1ccccc1 [Compound 5, (S)-2-fluoro-1-phenylethyl (1-methyl-4-(2-oxo-2,3-dihydro-1H-pyrido[2,3-b][1,4]-oxazin-6-yl)-1H-1,2,3-triazol-5-yl)-carbamate] | 100 nM

Molecules with a lower EC50, results first:

Row | EC50 | Structure (SMILES)
18 | < 5 nM | CC1Oc2nc(-c3nnn(C)c3NC(=O)O[C@H](C)c3cc(F)cnc3Cl)ccc2NC1=O (stereo partly drawn) [Compound 31, (R)-1-(2-chloro-5-fluoropyridin-3-yl)ethyl (1-methyl-4-(3-methyl-2-oxo-2,3-dihydro-1H-pyrido[2,3-b][1,4]oxazin-6-yl)-1H-1,2,3-triazol-5-yl)carbamate]
19 | 46 nM | C[C@@H](OC(=O)Nc1c(-c2ccc3c(c2)CCC(=O)N3)nnn1C)c1ccccc1Cl [Compound 11, (R)-1-(2-chlorophenyl)ethyl (1-methyl-4-(2-oxo-1,2,3,4-tetrahydroquinolin-6-yl)-1H-1,2,3-triazol-5-yl)carbamate]
20 | 5 nM | C[C@@H](OC(=O)Nc1c(-c2cc(F)c3c(c2)CCC(=O)N3)nnn1C)c1cccnc1Cl [Compound 29, (R)-1-(2-chloropyridin-3-yl)ethyl (4-(8-fluoro-2-oxo-1,2,3,4-tetrahydroquinolin-6-yl)-1-methyl-1H-1,2,3-triazol-5-yl)carbamate]
21 | 86 nM | CC1Oc2nc(-c3nnn(C)c3NC(=O)O[C@H](C)c3cccnc3Cl)ccc2NC1=O (stereo partly drawn) [Compound 22, (R)-1-(2-chloropyridin-3-yl)ethyl (1-methyl-4-(3-methyl-2-oxo-2,3-dihydro-1H-pyrido[2,3-b][1,4]oxazin-6-yl)-1H-1,2,3-triazol-5-yl)carbamate]
22 | < 5 nM | C[C@@H](OC(=O)Nc1c(-c2ccc3c(n2)OC(C(F)(F)F)C(=O)N3)nnn1C)c1cc(F)cnc1Cl (stereo partly drawn) [Compound 30, (R)-1-(2-chloro-5-fluoropyridin-3-yl)ethyl (1-methyl-4-(2-oxo-3-(trifluoromethyl)-2,3-dihydro-1H-pyrido[2,3-b][1,4]oxazin-6-yl)-1H-1,2,3-triazol-5-yl)carbamate]
23 | 66 nM | C[C@@H](OC(=O)Nc1c(-c2ccc3c(n2)OCC(=O)N3)nnn1C)c1cc(F)cnc1F [Compound 3, (R)-1-(2,5-difluoropyridin-3-yl)ethyl(1-methyl-4-(2-oxo-2,3-dihydro-1H-pyrido-[2,3-b][1,4]oxazin-6-yl)-1H-1,2,3-triazol-5-yl)carbamate]
24 | 85 nM | C[C@@H](OC(=O)Nc1c(-c2ccc3c(n2)OCC(=O)N3)nnn1C)c1cc(F)cnc1Cl [Compound 1, (R)-1-(2-chloro-5-fluoropyridin-3-yl)ethyl (1-methyl-4-(2-oxo-2,3-dihydro-1H-pyrido[2,3-b][1,4]oxazin-6-yl)-1H-1,2,3-triazol-5-yl)carbamate]
25 | 38 nM | C[C@@H](OC(=O)Nc1c(-c2ccc3c(c2)OCC(=O)N3)nnn1C)c1ccccc1Cl [Compound 13, (R)-1-(2-chlorophenyl)ethyl(1-methyl-4-(3-oxo-3,4-dihydro-2H-benzo[b][1,4]-oxazin-7-yl)-1H-1,2,3-triazol-5-yl)-carbamate]
